This passage reports melting point results from a melting point compilation (Tetko et al.; mined from patent text by program, amines drawn as free bases though some values may be those of a salt).

SMILES strings stand for the structures.

As to `CC(C)c1c(C=O)c(-c2ccc(F)cc2)c2ccccn12`, the melting point (commonly the temperature, or range, at which the solid turns liquid) fell in the range of 94 to 95 °C.

As for `Cn1ccc(-c2[nH]nc3c2C(=O)c2c(NC(=O)NN4CCOCC4)cccc2-3)c1`, the melting point came out at 301 °C.

`Cc1noc(NS(=O)(=O)c2ccccc2-c2ccc(-c3nccs3)cc2)c1C` gave a melting point of 87 to 97 °C.

For the compound `COc1cc(Cl)ccc1C(=O)Nc1ccc(C(=O)N2Cc3cccn3Cc3ccccc32)cc1`, the melting point is 222 to 224 °C.

`CCCCCCCC(=O)c1ccc(CCC(CC)(CCOC(C)=O)NC(C)=O)cc1` (stereo not drawn): the melting point fell in the range of 66 to 69 °C.

Compound `CN(C)c1ccc(C(=O)N[C@H](Cc2ccc(C(F)(F)F)cc2)[C@@H](O)c2ccc(F)cc2)c2ccccc12` (racemic) came in with a melting point of 169 to 170 °C.

Compound `COC(=O)Nc1cn2nc(OCc3cc(OC)c(OC)c(OC)c3Br)ccc2n1` displayed a melting point of 218 to 219 °C.

`CCc1sc(NC(=O)C2=C(O)c3ccc4ccccc4c3S(=O)(=O)N2C)nc1C` returned a melting point of 253 to 255 °C.

`CC(=O)Nc1ccc(S(=O)(=O)Nc2cc(Cl)nc(N3CCCC3)n2)cc1` yielded a melting point of 229 to 233 °C.

Compound `CCOC(=O)C=Cc1ccc(-n2ccnc2)cc1` yielded a melting point of 96 to 97.5 °C.

`NS(=O)(=O)c1ccc(C2CCN(c3cc([N+](=O)[O-])ccn3)CC2)cc1` came in with a melting point of 215 to 217 °C.

`Cc1cnc(N2CCN(CC[C@H]3CC[C@H](NC(=O)C4CCOCC4)CC3)CC2)c2c1OCC2`: the melting point turned out to be 224 °C.

`CC(C)OC(=O)Nc1cccc(-c2ccnc3c(C(=O)c4ccoc4)cnn23)c1` showed a melting point of 127 to 129 °C.

With `COc1cc2c(cc1OC)N(C)C(=O)CN=C2c1cccc(CO)c1`, the melting point lay in the range of 143 to 146 °C.

With `CC(C)NNC(=O)NC1c2ccccc2Oc2ccccc21`, the melting point is 162 °C.

`CCC1(CC)CC(c2ccc(OC)c(OC)c2)=NN(C2CCN(C(=O)c3ccccc3)CC2)C1=O` came in with a melting point of 160 to 161 °C.

As for `NNC(=O)c1cn(C2CCN(Cc3ccccc3)C2)nn1` (stereo not drawn), the melting point was determined as 123 °C.

The compound `COc1cccc(CNC(=O)c2nc3sc(C(N)=O)c(C)c3c(=O)[nH]2)c1` displayed a melting point of 258 °C.

Compound `O=C(O)c1cc(-c2ccc(Cl)cc2)nn1Cc1ccc(Cl)cc1Cl` gave a melting point of 218 °C.

With `CCc1nn2c(c1Oc1cc(Cl)cc(Cl)c1)CN(Cc1ccc(C#N)cc1)CC2`, the melting point lay in the range of 149 to 150 °C.

`Cc1ccc(S(=O)(=O)c2ccc(N3CCN(C)CC3)cc2N)cc1` came in with a melting point of 148 to 151 °C.

With `CCCCCCCc1cn2cc(-c3ccc(O)cc3)nc2s1`, the melting point is 122 °C.

For `CCOC(=O)c1c(C2CCN(C)CC2)[nH]c(-c2ccc(F)c(F)c2)c1-c1ccncc1`, the melting point fell in the range of 262 to 265 °C.

The compound `C[C@H](NC(=O)c1c(N)cccc1F)C(=O)O` returned a melting point of 194 to 198 °C.

For the compound `Oc1ccc(N2CCN(c3ccc4ccccc4n3)CC2)cc1`, the melting point stood at 198 °C.

`COc1cc(C=C2COCC(=Cc3cc(OC)c(OC)c(OC)c3)C2=O)cc(OC)c1OC` returned a melting point of 187 to 189 °C.

In the case of `CC(C(=O)NN1CCOCC1)C(C#N)(c1ccccc1)c1ccccc1` (stereo not drawn), the melting point fell in the range of 210 to 215 °C.

`O=C1c2ccccc2C(=O)N1CCCC1c2ccccc2C=Cc2ccccc21` came in with a melting point of 126 to 132 °C.

Regarding `ClC(=NNc1ccc(Br)cc1)c1ccc(Cl)cc1`, the melting point was 142 to 144 °C.

`CN1CCN(c2cccc3c2C[C@H](NC(=O)c2ccc(C(=O)c4ccccc4)cc2)CC3)CC1` displayed a melting point of 194 to 195 °C.

`NC1(CC(=O)O)CCCCC1` showed a melting point of 200 to 204 °C.

In turn, `CN1C(=O)CCC1(O)c1ccc(Cl)c(N)c1` (stereo not drawn) gave a melting point of 154 °C.

For the compound `OCCCC(=C(c1ccccc1)c1ccccc1)c1ccccc1`, the melting point fell in the range of 128 to 130 °C.

In turn, `NC1=NC(c2cccc(-c3cccnc3F)c2)(c2ccc3c(c2)OCO3)C2=NCCCN12` (stereo not drawn) showed a melting point of 106 to 119 °C.

On to `COc1ccc(C2OC2C(N)=O)cc1` (stereo not drawn), for which the melting point was 142 to 144 °C.

Compound `Cc1oc(-c2ccccc2)nc1COc1ccc(/C=C/CO)cc1C(F)(F)F` returned a melting point of 152 to 153 °C.

In turn, `Nc1c(Cl)nc(C2CC2)nc1Cl` showed a melting point of 54 °C.

The compound `COC(=O)CCCCC(=O)Nc1ccc2c3c(n(CCCNC(=O)OC(C)(C)C)c(=O)c2c1)-c1ccccc1C3=O` gave a melting point of 143 to 145 °C.

`COC(=O)C(=Cc1ccc(OCCc2nc(-c3ccccc3)oc2C)cc1)C(=O)OC` had a melting point of 104 to 105 °C.

The compound `CC(C)CC(=O)N[C@H]1N=C(c2ccccc2)c2ccccc2N(C)C1=O` registered a melting point of 83 to 102 °C.

For `CN(C)C=C(C#N)C(=O)c1nccs1`, the melting point came to 126 °C.

Compound `O=C(O)Cn1cccc(NC(=O)CCc2ccccc2)c1=O` yielded a melting point of 195 to 197 °C.

As to `O=C(Nc1ccc(N2CCN(C(C(=O)NCC(F)(F)F)c3ccccc3)CC2)cc1)c1ccccc1-c1ccc(C(F)(F)F)cc1` (stereo not drawn), the melting point came to 208 °C.

In the case of `CCCCCCCCCCCCCCCCCCOC[C@@H](O)COC(=O)CCCCl`, the melting point was 48 °C.

`O=C1CCCCC(CCc2nc3cc(Br)cnc3[nH]2)N1` (stereo not drawn): the melting point stood at 245 °C.

For `COc1cc(/C=C/C(=O)CC(=O)C2CC2)ccc1O`, the melting point was in the range of 74.5 to 79 °C.

As for `CC(C)Cn1c(CNC(=O)OC(C)(C)C)c(-c2ccc(F)cc2)c2cc(OCC(N)=O)ccc2c1=O`, the melting point was in the range of 218 to 219 °C.

Compound `COc1ccc(CCc2cc3cc(C#N)ccc3o2)c(CC(=O)OCc2ccccc2)c1` came in with a melting point of 127 to 128 °C.

Regarding `CC(C)c1nccc2c(C(C)C(=O)O)cccc12` (stereo not drawn), the melting point was 138 °C.

The compound `COCc1ccoc1-c1cc(-n2c(N)nc3ccccc32)ccc1C` displayed a melting point of 174 to 176 °C.

`CCOC(=O)CC[C@H](NC(=O)c1ccc2c(c1)CCN2)C(=O)OCC` came in with a melting point of 96 to 97 °C.

In the case of `CCCC1Sc2ccc(F)cc2C=C1c1ccc2c(c1)NC(=O)CO2` (stereo not drawn), the melting point was in the range of 161 to 162 °C.

For `CCCc1sc(-c2ccccc2)nc1OC(=O)NC`, the melting point lay in the range of 55 to 58 °C.

In turn, `Nc1cccc2cncc(Br)c12` had a melting point of 155 °C.

In turn, `O=Cc1ccc(OCCBr)cc1` gave a melting point of 49.5 to 50 °C.

Regarding `CCn1c(OC)n[nH]c1=O`, the melting point worked out at 130 °C.

Compound `CC(C)(N)c1ccc(-c2nc(Nc3ccc(-n4cncn4)cc3)ncc2C#N)cc1` had a melting point of 208 to 209 °C.

`Cc1nnc2n1-c1ccc(C#CCN3C(=O)CCc4ccccc43)cc1C(c1ccccc1F)=NC2` came in with a melting point of 236 to 239 °C.

Compound `COC(=O)c1cccc(Cn2c(C(=O)Nc3nc(-c4cc(OC)c(C)cc4OC)c(CCC4CCCCC4)s3)cc3cc(C)cc(C)c32)c1` showed a melting point of 219 to 220 °C.

Compound `COCOc1cc(OC)c(OC)cc1C#Cc1ccc(OC)c(OC)c1` yielded a melting point of 84 to 86 °C.

`COC(=O)c1ccc(NC(=O)C(CC(=O)O)c2ccccc2)cc1` (stereo not drawn) gave a melting point of 190 °C.

`ON=Cc1ccc2c(c1)ncn2-c1cccc(-c2ccncn2)c1` gave a melting point of 220 to 221 °C.

With `Cc1ccc(Sc2cc(C(=O)O)ccc2C(=O)O)cc1`, the melting point was found to be 326 °C.
